Paper PMC6018746, “Activation of the p53-MDM4 regulatory axis defines the anti-tumour response to PRMT5 inhibition through its role in regulating cellular splicing” (Scientific Reports, 2018)
Like-named read-outs stand apart in the source and are kept apart here.

Test system: panel of hematologic and solid cancer lines
Assay: 6-day in vitro growth/death assay
Type: cell-based, human
Settings: read-out: gIC50
Description: To further develop these molecules and to guide clinical strategy, it was necessary to understand sensitivity in preclinical models by assessing the anti-tumour activity of the PRMT5 inhibitors in various cancers.
Cell lines were obtained from ATCC or DSMZ and were grown in recommended medium, which was most frequently RPMI-1640 containing 10% FBS. Cell line proliferation assays, Western blotting, qRT-PCR, and cell cycle analyses were performed as described previously[27],[28]. Antibody and gene expression reagents are as described in Supplementary Table 16. All studies were conducted in accordance with the GSK Policy on the Care, Welfare and Treatment of Laboratory Animals and were reviewed by the Institutional Animal Care and Use Committee either at GSK or by the ethical review process at the institution where the work was performed. Detailed descriptions of all methods can be found in the Supplemental Materials.

Molecule `O=C(NC[C@H](O)CN1CCc2ccccc2C1)c1ccnc(NC2CCC2)c1` [GSK3203591] has an IC50 (Homo sapiens, NCI-H747, NCIH747) of 1500 nM, an IC50 (Homo sapiens, NCI-H1048, NCI-H1048) of 252 nM and an IC50 (Homo sapiens, NCI-H1299, NCI-H1299) of 419 nM. For the same molecule, the IC50 (Homo sapiens, NCI-H1437, NCI-H1437) was 467 nM, the IC50 (Homo sapiens, NCI-H1563, NCI-H1563) was over 29300 nM and the IC50 (Homo sapiens, NCI-H1581, NCI-H1581) was 12800 nM. The IC50 (Homo sapiens, NCI-H1648, NCI-H1648) was 20700 nM, the IC50 (Homo sapiens, NCI-H1650, NCI-H1650) was 8770 nM and the IC50 (Homo sapiens, NCI-H1651, NCI-H1651) was 15300 nM. The IC50 (Homo sapiens, NCI-H1915, NCI-H1915) was 1130 nM, the IC50 (Homo sapiens, NCI-H1975, NCI-H1975) was 289 nM and the IC50 (Homo sapiens, NCI-H2087, NCI-H2087) was 510 nM. The IC50 (Homo sapiens, NCI-H2170, NCI-H2170) was 6390 nM, the IC50 (Homo sapiens, NKM-1) was 7.6 nM and the IC50 (Homo sapiens, NOMO-1, NOMO-1) was 7320 nM. For the same molecule, the IC50 (Homo sapiens, NU-DHL-1, NU-DHL-1) was 101 nM, the IC50 (Homo sapiens, NU-DUL-1, NU-DUL-1) was 548 nM and the IC50 (Homo sapiens, OCI-AML-3, OCI-AML3) was 373 nM. The IC50 (Homo sapiens, OCI-AML-5, OCI-AML5) was 297 nM, the IC50 (Homo sapiens, OCI-LY19, OCI-LY-19) was 101 nM and the IC50 (Homo sapiens, OCI-Ly1, OCILY-1) was over 29300 nM. The IC50 (Homo sapiens, OCI-Ly3, OCI-LY3) was 1510 nM, the IC50 (Homo sapiens, OCI-Ly10, OCILY-10) was 4470 nM and the IC50 (Homo sapiens, OCI-Ly18, OCI-LY-18) was 30.8 nM. It also gave an IC50 (Homo sapiens, OCI-M1, OCI-M1) of 130 nM, an IC50 (Homo sapiens, OPM-2, OPM-2) of 40.2 nM and an IC50 (Homo sapiens, PANC-1, PANC-1) of 939 nM. For the same molecule, the IC50 (Homo sapiens, PANC-03-27, PANC-03.27) was 2480 nM, the IC50 (Homo sapiens, PANC-08-13, PANC-08.13) was 136 nM and the IC50 (Homo sapiens, PC-3, PC-3) was 1890 nM. It also gave an IC50 (Homo sapiens, PC-9, PC9) of 95 nM, an IC50 (Homo sapiens, PER-403, PER-403) of 29.2 nM and an IC50 (Homo sapiens, PER-624) of 526 nM. The IC50 (Homo sapiens, PER-704) was 374 nM, the IC50 (Homo sapiens, PL-21, PL-21) was 329 nM and the IC50 (Homo sapiens, PSN1, PSN-1) was 504 nM. It also gave an IC50 (Homo sapiens, PaTu 8988t, PA-TU-8988T) of over 29300 nM, an IC50 (Homo sapiens, Panc 02.03, PANC-02.03) of 1370 nM and an IC50 (Homo sapiens, Panc 04.03, PANC-04.03) of 622 nM. It also gave an IC50 (Homo sapiens, Panc1005, PANC-10.05) of 2080 nM, an IC50 (Homo sapiens, Pfeiffer) of 352 nM and an IC50 (Homo sapiens, RCK8, RCK8) of 2110 nM. The IC50 (Homo sapiens, RIVA) was 68.4 nM, the IC50 (Homo sapiens, RKO) was 2210 nM and the IC50 (Homo sapiens, RL) was 1430 nM. The IC50 (Homo sapiens, RPMI-6666, RPMI-6666) was 2710 nM, the IC50 (Homo sapiens, RPMI-8226, RPMI-8226) was 135 nM and the IC50 (Homo sapiens, RPMI-8226-DOX) was 204 nM. For the same molecule, the IC50 (Homo sapiens, RPMI-8226-LR5) was 303 nM, the IC50 (Homo sapiens, RPMI-8226-MR20) was 384 nM and the IC50 (Homo sapiens, RT-112, RT-112) was 1110 nM. It also gave an IC50 (Homo sapiens, RVH-421, RVH-421) of over 29300 nM, an IC50 (Homo sapiens, Rec1, REC-1) of 1990 nM and an IC50 (Homo sapiens, SC-1, SC-1) of 117 nM. It also gave an IC50 (Homo sapiens, SCaBER) of 255 nM, an IC50 (Homo sapiens, SF-126, SF-126) of 386 nM and an IC50 (Homo sapiens, SF-295, SF295) of 9840 nM. The IC50 (Homo sapiens, SF-539, SF539) was 75 nM, the IC50 (Homo sapiens, SH-4, SH-4) was 2560 nM and the IC50 (Homo sapiens, SHI-1) was 358 nM. The IC50 (Homo sapiens, SIG-M5, SIG-M5) was 316 nM, the IC50 (Homo sapiens, SK-BR-3, SK-BR-3) was 132 nM and the IC50 (Homo sapiens, SK-CO-1, SK-CO-1) was 473 nM. The IC50 (Homo sapiens, SK-LU-1, SK-LU-1) was 881 nM, the IC50 (Homo sapiens, SK-MEL-5, SK-MEL-5) was 111 nM and the IC50 (Homo sapiens, SK-MES-1, SK-MES-1) was 18500 nM. The IC50 (Homo sapiens, SK-MM-2, SK-MM-2) was 1260 nM, the IC50 (Homo sapiens, SK-NEP-1, SK-NEP-1) was 2240 nM and the IC50 (Homo sapiens, SK-UT-1, SK-UT-1) was 393 nM. The IC50 (Homo sapiens, SKM-1, SKM-1) was 110 nM, the IC50 (Homo sapiens, SKNO-1, SKNO-1) was 563 nM and the IC50 (Homo sapiens, SNU-16, SNU16) was 175 nM. The IC50 (Homo sapiens, SNU-C1, SNUC1) was 1520 nM, the IC50 (Homo sapiens, SR-786, SR-786) was 32.8 nM and the IC50 (Homo sapiens, SU-DHL10, SU-DHL-10) was 495 nM. The IC50 (Homo sapiens, SU-DHL-2, SU-DHL-2) was 86 nM, the IC50 (Homo sapiens, SU-DHL-4, SU-DHL-4) was 571 nM and the IC50 (Homo sapiens, SU-DHL-5, SU-DHL-5) was 132 nM. For the same molecule, the IC50 (Homo sapiens, SU-DHL-6, SU-DHL-6) was 12.9 nM, the IC50 (Homo sapiens, SU-DHL-8, SU-DHL-8) was 1220 nM and the IC50 (Homo sapiens, SU-DHL-16, SU-DHL-16) was 124 nM. It also gave an IC50 (Homo sapiens, SW48, SW48) of 9340 nM, an IC50 (Homo sapiens, SW480, SW480) of 2260 nM and an IC50 (Homo sapiens, SW780, SW-780) of 450 nM. For the same molecule, the IC50 (Homo sapiens, SW837, SW837) was 9150 nM, the IC50 (Homo sapiens, SW900, SW900) was 7970 nM and the IC50 (Homo sapiens, SW982, SW982) was 369 nM. The IC50 (Homo sapiens, SW1271, SW1271) was 3180 nM, the IC50 (Homo sapiens, SW1417, SW-1417) was 19600 nM and the IC50 (Homo sapiens, SW1573, SW1573) was 11400 nM. It also gave an IC50 (Homo sapiens, SW1710, SW-1710) of 10000 nM, an IC50 (Homo sapiens, SW1990, SW-1990) of 125 nM and an IC50 (Homo sapiens, SW-403, SW403) of 9760 nM. For the same molecule, the IC50 (Homo sapiens, SW-620, SW620) was 1350 nM, the IC50 (Homo sapiens, T47D, T-47D) was 225 nM and the IC50 (Homo sapiens, T84, T84) was 1680 nM. It also gave an IC50 (Homo sapiens, T98MG) of 1300 nM, an IC50 (Homo sapiens, T-24, T24) of 650 nM and an IC50 (Homo sapiens, TCC-SUP, TCCSUP) of 11200 nM. It also gave an IC50 (Homo sapiens, TF-1, TF-1) of 138 nM, an IC50 (Homo sapiens, THP-1, THP-1) of 951 nM and an IC50 (Homo sapiens, Toledo) of 443 nM. It also gave an IC50 (Homo sapiens, U138-MG, U138MG) of over 29300 nM, an IC50 (Homo sapiens, U266B1) of 652 nM and an IC50 (Homo sapiens, U2932, U2932) of 336 nM. It also gave an IC50 (Homo sapiens, U-87 MG) of 128 nM, an IC50 (Homo sapiens, U-251, U251MG) of 3490 nM and an IC50 (Homo sapiens, U-937, U937) of 48.6 nM. The IC50 (Homo sapiens, U-2940, U2940) was 2350 nM, the IC50 (Homo sapiens, UMC-11, UMC11) was 10700 nM and the IC50 (Homo sapiens, UMUC3, UM-UC-3) was 19200 nM. The IC50 (Homo sapiens, VCaP) was over 29300 nM, the IC50 (Homo sapiens, VM-CUB-1, VM-CUB1) was 1580 nM and the IC50 (Homo sapiens, WM 266-4, WM-266-4) was 17200 nM. The IC50 (Homo sapiens, WSU-FSCCL) was 268 nM, the IC50 (Homo sapiens, WSU-NHL) was 75.7 nM and the IC50 (Homo sapiens, WSUDLCL2, WSU-DLCL2) was 652 nM. The IC50 (Homo sapiens, WiDr) was 438 nM, the IC50 (Homo sapiens, YH13) was over 29300 nM and the IC50 (Homo sapiens, YKG-1, YKG1) was 254 nM. For the same molecule, the IC50 (Homo sapiens, Z-138, Z-138) was 13.6 nM, the IC50 (Homo sapiens, ZR-75-1, ZR-75-1) was 2620 nM and the IC50 (Homo sapiens, majority (147/276) of cell lines) was under 1000 nM. The IC50 (J82) was 20900 nM, the IC50 (JM1) was 76 nM and the IC50 (JVM-2) was 172 nM. For the same molecule, the IC50 (JeKo-1) was 6190 nM, the IC50 (LN-229) was 1150 nM and the IC50 (MAVER-1) was 133 nM. For the same molecule, the IC50 (MCF-7) was 215 nM, the IC50 (MDA-MB-231) was 2930 nM and the IC50 (MINO) was 536 nM. The IC50 (NCI-H526-R) was 219 nM, the IC50 (NCI-H526) was 138 nM and the IC50 (PER-403) was 29 nM. It also gave an IC50 (PER-624) of 526 nM, an IC50 (PER-704) of 375 nM and an IC50 (Pfeiffer) of 352 nM. The IC50 (RCK8) was 2110 nM, the IC50 (REC-1) was 1990 nM and the IC50 (RIVA) was 68 nM. For the same molecule, the IC50 (RL) was 1430 nM, the IC50 (SF295) was 9840 nM and the IC50 (SK-BR-3) was 131 nM. The IC50 (SU-DHL-4) was 571 nM, the IC50 (SU-DHL-5) was 132 nM and the IC50 (SU-DHL-6) was 13 nM. The IC50 (SU-DHL-8) was 1220 nM, the IC50 (SU-DHL-10) was 495 nM and the IC50 (SU-DHL-16) was 124 nM. The IC50 (SW-780) was 451 nM, the IC50 (T24) was 650 nM and the IC50 (U251MG) was 3490 nM. It also gave an IC50 (U937) of 49 nM, an IC50 (U2932) of 336 nM and an IC50 (U2940) of 2350 nM. It also gave an IC50 (U-87MG) of 127 nM, an IC50 (UM-UC-3) of 19200 nM and an IC50 (WSU-DLCL2) of 651 nM. For the same molecule, the IC50 (Z-138) was 14 nM and the IC50 (ZR-75-1) was 2620 nM.
